Results on 1 substance are retold here after paper PMC9603901, “Therapeutic Potential of Antimicrobial Peptide PN5 against Multidrug-Resistant E. coli and Anti-Inflammatory Activity in a Septic Mouse Model” (Microbiology Spectrum, 2022).

For one data set, the system named is MDR E. coli ASEC 12. The data set is described as follows: microbe, parasite or virus in culture. Format: cell-based, Escherichia coli. Conditions: microdilution, LB, 18 to 24 h, 37°C, three independent experiments. The procedure:
(§1) Bacterial cells were cultured at 37°C in the appropriate culture media with shaking (180 rpm). Luria-Bertani broth (LB) (244620; BD Difco) was used for E. coli ATCC 25922, ASEC strains, and B. subtilis KCTC 2217. Nutrient broth (NB) (234000; BD Difco) was used for P. aeruginosa ATCC 27853, S. Typhimurium KCTC 1926, and A. baumannii KCTC 2508. Tryptic soy broth (TSB) (211825; BD Difco) was used for S. aureus ATCC 25923. Finally, brain heart infusion (BHI) (237500; BD Difco) was used for L. monocytogenes KCTC 3710. The antimicrobial activity of each peptide was determined using microdilution assays. To this end, 2-fold serial dilution series of each peptide (from 1 to 64 μM) were added to duplicate media with 10 mM sodium phosphate buffer (pH 7.4). Fifty microliters of the peptide and antibiotic solution was added to each well of a 96-well plate (32096, surface nontreatment; SPL Life Sciences). Then, 50 μL of 2 × 10^5 CFU mL^−1 of bacteria was added to each well, and the samples were incubated for 18 to 24 h without shaking at 37°C.
For orientation: Dilution methods test growth across graded concentrations, often in twofold steps.

In another data set the test system is MDR E. coli ASEC 16. Description: microbe, parasite or virus in culture. Format: cell-based, Escherichia coli. The settings on record: microdilution, LB, 18 to 24 h, 37°C, three independent experiments. The procedure: as §1
The subject of another data set is MDR E. coli ASEC 15. The data set is described as follows: microbe, parasite or virus in culture. Format: cell-based, Escherichia coli. Conditions: microdilution, LB, 18 to 24 h, 37°C, three independent experiments. The procedure: as §1
In a further data set the test system is MDR E. coli ASEC 1. Description: microbe, parasite or virus in culture. Format: cell-based, Escherichia coli. Conditions: microdilution, LB, 18 to 24 h, 37°C, three independent experiments. The procedure: as §1
The test system of the next data set is MDR E. coli ASEC 6. Description: microbe, parasite or virus in culture. Format: cell-based, Escherichia coli. The settings on record: microdilution, LB, 18 to 24 h, 37°C, three independent experiments. The procedure: as §1
The subject of another data set is MDR E. coli ASEC 14. Description: microbe, parasite or virus in culture. Format: cell-based, Escherichia coli. Conditions: microdilution, LB, 18 to 24 h, 37°C, three independent experiments. The procedure: as §1
The test system of the next data set is MDR E. coli ASEC 18. Description: microbe, parasite or virus in culture. Format: cell-based, Escherichia coli. Conditions: microdilution, LB, 18 to 24 h, 37°C, three independent experiments. The procedure: as §1
The next data set relates to MDR E. coli ASEC 9. Description: microbe, parasite or virus in culture. Conditions: microdilution, LB, 18 to 24 h, 37°C, three independent experiments. Format: cell-based, Escherichia coli. The procedure:
as §1

The next data set deals with MDR E. coli ASEC 8. Description: microbe, parasite or virus in culture. Format: cell-based, Escherichia coli. The settings on record: microdilution, LB, 18 to 24 h, 37°C, three independent experiments. The procedure:
as §1

Another data set deals with MDR E. coli ASEC 5. The data set is described as follows: microbe, parasite or virus in culture. The settings on record: microdilution, LB, 18 to 24 h, 37°C, three independent experiments. Format: cell-based, Escherichia coli. The procedure:
as §1

A further data set concerns MDR E. coli ASEC 10. Description: microbe, parasite or virus in culture. Format: cell-based, Escherichia coli. Conditions: microdilution, LB, 18 to 24 h, 37°C, three independent experiments. The procedure: as §1
In a further data set the test system is MDR E. coli ASEC 13. Description: microbe, parasite or virus in culture. Format: cell-based, Escherichia coli. The settings on record: microdilution, LB, 18 to 24 h, 37°C, three independent experiments. The procedure:
as §1

A further data set concerns MDR E. coli ASEC 11. Description: microbe, parasite or virus in culture. Format: cell-based, Escherichia coli. The settings on record: microdilution, LB, 18 to 24 h, 37°C, three independent experiments. The procedure:
as §1

The test system of a further data set is MDR E. coli ASEC 2. Description: microbe, parasite or virus in culture. Format: cell-based, Escherichia coli. Conditions: microdilution, LB, 18 to 24 h, 37°C, three independent experiments. The procedure: as §1
In the next data set the test system is MDR E. coli ASEC 7. Description: microbe, parasite or virus in culture. The settings on record: microdilution, LB, 18 to 24 h, 37°C, three independent experiments. Format: cell-based, Escherichia coli. The procedure:
as §1

The next data set concerns MDR E. coli ASEC 3. Description: microbe, parasite or virus in culture. Format: cell-based, Escherichia coli. Conditions: microdilution, LB, 18 to 24 h, 37°C, three independent experiments. The procedure:
as §1

The next data set concerns S. aureus ATCC 25923. Format: cell-based, Staphylococcus aureus. The settings on record: microdilution, TSB, 18 to 24 h, 37°C, three independent experiments. The procedure:
as §1

The next data set has as its system P. aeruginosa ATCC 27853. Format: cell-based, Pseudomonas aeruginosa. The settings on record: microdilution, NB, 18 to 24 h, 37°C, three independent experiments. The procedure: as §1
The test system of the next data set is RAW 264.7 cells. The data set is described as follows: MTT cell viability. Format: cell-based, mouse. Conditions: 200 μM, 24 h. The procedure:
RAW 264.7 cells (mouse macrophage cells) were maintained in high-glucose Dulbecco’s modified Eagle medium (DMEM) (Welgene, Daegu, South Korea) supplemented with 10% fetal bovine serum (FBS) (Gibco) and 1% penicillin at 37°C in humidified 5% CO2. Cells (2 × 10^5 cells well^−1) were seeded into DMEM supplemented with 10% FBS medium in a 96-well plate. The MTT assay was performed after culturing the cells in 96-well plates at a density of 2 × 10^5 cells well^−1, followed by treatment with serially diluted PN5, magainin 2, and melittin. After 24 h, the medium was discarded, and 100 μL DMEM and 10% FBS medium containing 0.5 mg mL^−1 MTT were added to each well. After 4 h of incubation, the medium was discarded and dimethyl sulfoxide was added to each well to solubilize the formazan. The optical densities at 570 and 650 nm (OD570 and OD650, respectively) of the treated cells were compared to those of control cells. The hemolytic activity of the peptides was evaluated as the release of hemoglobin from an 8% mRBC suspension. A 100-μL aliquot of the 8% mRBC suspension was added to the wells of a 96-well plate, and 100 μL of peptide solution in phosphate-buffered saline (PBS) was added at a final peptide concentration of 200 μM. After incubation for 1 h at 37°C with shaking (50 rpm), the suspensions were centrifuged at 1,000 × g for 5 min. The absorbance of the supernatant was measured at 414 nm using a Versa Max microplate reader (Molecular Devices). As a control, no hemolysis and complete hemolysis were determined in PBS and 0.1% Triton X-100, respectively. The degree of hemolysis was calculated using the following equation as described in reference: %hemolysis=[(A414withpeptide-A414withPBS)/(A414with0.1%TritonX-100-A414 with PBS)] × 100

For another data set, the system named is B. subtilis KCTC 2217. Format: cell-based, Bacillus subtilis. The settings on record: microdilution, LB, 18 to 24 h, 37°C, three independent experiments. The procedure: as §1
Another data set has as its system A. baumannii KCTC 2508. Format: cell-based, Acinetobacter baumannii. Conditions: microdilution, NB, 18 to 24 h, 37°C, three independent experiments. The procedure:
as §1

The subject of the next data set is E. coli ATCC 25922. The data set is described as follows: NPN uptake, outer membrane permeability. Format: cell-based, Escherichia coli. Conditions: E. coli ATCC 25922, 4× MIC, 60 min, 10 μM NPN, relative to 0.1% Triton X-100. The procedure:
The ability of PN5 to permeate the outer bacterial membrane was determined based on the uptake of NPN, a fluorescent dye. Briefly, E. coli 25922 cells grown to the logarithmic phase at 37°C were harvested by centrifugation at 6,000 × g and 4°C for 10 min. The bacterial cells were washed twice with 5 mM HEPES buffer (pH 7.4) and resuspended to OD600 of 0.4. NPN was added to the bacterial suspension at a final concentration of 10 μM. Aliquots of the peptides were added to the bacterial suspensions. Background fluorescence was recorded using a fluorescence spectrophotometer. The excitation and emission wavelengths were set to 350 and 420 nm, respectively. The values were converted to percentage of NPN uptake using the equation % NPN uptake = [(Fobs − F0)/(F100 − F0)] × 100, where Fobs is the fluorescence observed at each peptide concentration, F0 is the initial fluorescence of NPN with E. coli in the absence of peptides, and F100 is the fluorescence of NPN upon the addition of 0.1% Triton X-100, which was used as a positive control ([57]).

As for Magainin 2, the MIC with MDR E. coli ASEC 12 is listed as 16 (39.47) μM; in the data set with MDR E. coli ASEC 16, 8 (19.74) μM; in the data set with MDR E. coli ASEC 15 it was 16 (39.47) μM; in the data set with MDR E. coli ASEC 1, 16 (39.47) μM; in the data set on MDR E. coli ASEC 6 it was 4 (9.87) μM; against MDR E. coli ASEC 14, 4 (9.87) μM. In addition, the MIC with MDR E. coli ASEC 18 is on record as 16 (39.47) μM; against MDR E. coli ASEC 9, 8 (19.74) μM; in the data set on MDR E. coli ASEC 8 it was 16 (39.47) μM; in the data set on MDR E. coli ASEC 5 it was 16 (39.47) μM; against MDR E. coli ASEC 10, 16 (39.47) μM; in the data set with MDR E. coli ASEC 13 it was 16 (39.47) μM. For the same substance, the MIC against MDR E. coli ASEC 11 was 16 (39.47) μM; in the data set on MDR E. coli ASEC 2 it was 8 (19.74) μM; in the data set with MDR E. coli ASEC 7, 8 (19.74) μM; in the data set with MDR E. coli ASEC 3, 16 (39.47) μM; against S. aureus ATCC 25923 it was 39.47 µg/mL; against P. aeruginosa ATCC 27853 it was 32 µM. Further, the MIC against B. subtilis KCTC 2217 was 39.47 µg/mL; against A. baumannii KCTC 2508, 19.74 µg/mL. Besides, the “toxicity, MTT assay” value with RAW 264.7 cells is “over 50%”. The substance also gave an NPN uptake with E. coli ATCC 25922 of 35.7%.
